# Reference: PubChem BioAssay (NCI)
#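 In this assay, cells in 96-well plates receive the compound at five concentrations for 48 hours. Endpoints are linearly interpolated between the surrounding concentrations. Definition used: TGI = concentration required for complete inhibition of growth.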 The source made the active and inactive calls. Rule as the data show it: active = GI50 below about 0.43 µM; inactive = the rest.
# How the values were obtained:
# Assay in all cases: NCI anticancer screen, dose series, 48 h
# [1] = test system: NCI-H522 lung
# [2] = test system: UACC-257 melanoma
# [3] = test system: OVCAR-5 ovarian
# [4] = test system: SNB-19 CNS
# [5] = test system: NCI-H460 lung
# [6] = test system: SK-MEL-28 melanoma
# [7] = test system: SK-MEL-2 melanoma
# [8] = test system: MDA-MB-435
# [9] = test system: OVCAR-8 ovarian
# [10] = test system: MCF7 breast
# [11] = test system: T-47D breast
# [12] = test system: RXF 393 renal
# [13] = test system: OVCAR-4 ovarian
# [14] = test system: KM12 colon
# [15] = test system: HS 578T breast
# [16] = test system: U251 CNS
# [17] = test system: EKVX NSCLC
# [18] = test system: NCI-H23 lung
# [19] = test system: ACHN renal
# [20] = test system: PC-3 prostate
# [21] = test system: HL-60(TB) leukemia
# [22] = test system: MALME-3M melanoma
# [23] = test system: RPMI-8226 leukemia
# [24] = test system: UO-31 renal
# [25] = test system: HCC-2998 colon
# [26] = test system: HT29 colon
# [27] = test system: SK-OV-3 ovarian
# [28] = test system: DU-145 prostate
# [29] = test system: MOLT-4 leukemia
# [30] = test system: NCI-H226 lung
# [31] = test system: BT-549 breast
# [32] = test system: UACC-62 melanoma
# [33] = test system: SR leukemia
# [34] = test system: SF-268 CNS
# [35] = test system: M14 melanoma
# [36] = test system: HOP-62 NSCLC
# [37] = test system: 786-0 renal
# [38] = test system: TK-10 renal
# [39] = test system: HCT-116 colon
# [40] = test system: K-562 leukemia
# [41] = test system: A498 renal
# [42] = test system: LOX IMVI melanoma
# [43] = test system: CCRF-CEM leukemia
# [44] = test system: OVCAR-3 ovarian
# [45] = test system: SW-620 colon
# [46] = test system: HCT-15 colon
# [47] = test system: SNB-75 CNS
# [48] = test system: SF-295 CNS
# [49] = test system: MDA-N
# [50] = test system: SN12C renal
# [51] = test system: COLO 205 colon
# [52] = test system: MDA-MB-231 breast
# [53] = test system: SF-539 CNS
# [54] = test system: CAKI-1 renal
# [55] = test system: IGROV1 ovarian
# [56] = test system: NCI/ADR-RES ovarian
# [57] = test system: A549 NSCLC
# [58] = test system: SK-MEL-5 melanoma
# [59] = test system: HOP-92 NSCLC
compound,measurement,setting,value
C[C@H](N)C(O)C/C=C\CC(O)/C=C/C=C\C/C=C\C/C=C\C/C=C\CCCCCCC(O)[C@H](C)N (some centres not stated),outcome,[1],inactive
same,outcome,[2],inactive
same,outcome,[3],inactive
same,outcome,[4],inactive
same,outcome,[5],inactive
same,outcome,[6],inactive
same,outcome,[7],inactive
same,outcome,[8],inactive
same,outcome,[9],inactive
same,outcome,[10],inactive
same,outcome,[11],inactive
same,outcome,[12],inactive
same,outcome,[13],inactive
same,outcome,[14],inactive
same,outcome,[15],inactive
same,outcome,[16],inactive
same,outcome,[17],inactive
same,outcome,[18],inactive
same,outcome,[19],inactive
same,outcome,[20],inactive
same,outcome,[21],inactive
same,outcome,[22],inactive
same,outcome,[23],inactive
same,outcome,[24],inactive
same,outcome,[25],inactive
same,outcome,[26],inactive
same,outcome,[27],inactive
same,outcome,[28],inactive
same,outcome,[29],inactive
same,outcome,[30],inactive
same,outcome,[31],inactive
same,outcome,[32],inactive
same,outcome,[33],inactive
same,outcome,[34],inactive
same,outcome,[35],inactive
same,outcome,[36],inactive
same,outcome,[37],inactive
same,outcome,[38],inactive
same,outcome,[39],inactive
same,outcome,[40],inactive
same,outcome,[41],inactive
same,outcome,[42],inactive
same,outcome,[43],inactive
same,outcome,[44],inactive
same,outcome,[45],inactive
same,outcome,[46],inactive
same,outcome,[47],inactive
same,outcome,[48],inactive
same,outcome,[49],inactive
same,outcome,[50],inactive
same,outcome,[51],inactive
same,outcome,[52],inactive
same,outcome,[53],inactive
same,outcome,[54],inactive
CC(C)=CC(O)C(C(O)CCC1(C)OCCO1)S(=O)(=O)c1ccccc1 (configuration not stated),TGI,[1],> 100 µM
same,TGI,[2],> 100 µM
same,TGI,[3],> 100 µM
same,TGI,[4],> 100 µM
same,TGI,[5],> 100 µM
same,TGI,[6],> 100 µM
same,TGI,[7],> 100 µM
same,TGI,[8],> 100 µM
same,TGI,[9],> 100 µM
same,TGI,[10],> 100 µM
same,TGI,[11],> 100 µM
same,TGI,[12],> 100 µM
same,TGI,[13],> 100 µM
same,TGI,[14],> 100 µM
same,TGI,[16],> 100 µM
same,TGI,[17],> 100 µM
same,TGI,[18],> 100 µM
same,TGI,[19],> 100 µM
same,TGI,[20],> 100 µM
same,TGI,[55],> 100 µM
same,TGI,[22],> 100 µM
same,TGI,[56],> 100 µM
same,TGI,[23],> 100 µM
same,TGI,[24],> 100 µM
same,TGI,[25],> 100 µM
same,TGI,[27],> 100 µM
same,TGI,[30],> 100 µM
same,TGI,[31],> 100 µM
same,TGI,[57],> 100 µM
same,TGI,[34],> 100 µM
same,TGI,[35],> 100 µM
same,TGI,[36],> 100 µM
same,TGI,[37],> 100 µM
same,TGI,[38],> 100 µM
same,TGI,[39],> 100 µM
same,TGI,[41],> 100 µM
same,TGI,[42],> 100 µM
same,TGI,[43],> 100 µM
same,TGI,[44],> 100 µM
same,TGI,[45],> 100 µM
same,TGI,[46],> 100 µM
same,TGI,[47],> 100 µM
same,TGI,[48],> 100 µM
same,TGI,[49],> 100 µM
same,TGI,[50],> 100 µM
same,TGI,[51],> 100 µM
same,TGI,[52],> 100 µM
same,TGI,[53],> 100 µM
same,TGI,[54],> 100 µM
Cn1c(C(O)C2(c3cccnc3)SCCCS2)cc2ccccc21 (configuration not stated),TGI,[2],> 100 µM
same,TGI,[3],> 100 µM
same,TGI,[4],> 100 µM
same,TGI,[5],> 100 µM
same,TGI,[6],> 100 µM
same,TGI,[7],> 100 µM
same,TGI,[8],> 100 µM
same,TGI,[9],> 100 µM
same,TGI,[10],> 100 µM
same,TGI,[11],> 100 µM
same,TGI,[13],> 100 µM
same,TGI,[14],> 100 µM
same,TGI,[16],> 100 µM
same,TGI,[17],> 100 µM
same,TGI,[58],> 100 µM
same,TGI,[18],> 100 µM
same,TGI,[19],> 100 µM
same,TGI,[20],> 100 µM
same,TGI,[55],> 100 µM
same,TGI,[21],> 100 µM
same,TGI,[22],> 100 µM
same,TGI,[56],> 100 µM
same,TGI,[23],> 100 µM
same,TGI,[24],> 100 µM
same,TGI,[25],> 100 µM
same,TGI,[26],> 100 µM
same,TGI,[27],> 100 µM
same,TGI,[28],> 100 µM
same,TGI,[30],> 100 µM
same,TGI,[31],> 100 µM
same,TGI,[57],> 100 µM
same,TGI,[32],> 100 µM
same,TGI,[33],> 100 µM
same,TGI,[34],> 100 µM
same,TGI,[35],> 100 µM
same,TGI,[36],> 100 µM
same,TGI,[37],> 100 µM
same,TGI,[38],> 100 µM
same,TGI,[39],> 100 µM
same,TGI,[40],> 100 µM
same,TGI,[59],> 100 µM
same,TGI,[41],> 100 µM
same,TGI,[42],> 100 µM
same,TGI,[43],> 100 µM
same,TGI,[44],> 100 µM
same,TGI,[45],> 100 µM
same,TGI,[46],> 100 µM
same,TGI,[47],> 100 µM
same,TGI,[48],> 100 µM
same,TGI,[49],> 100 µM
same,TGI,[50],> 100 µM
same,TGI,[51],> 100 µM
same,TGI,[52],> 100 µM
same,TGI,[54],> 100 µM
